Paper PMC10657444, “Design and evaluation of tadpole-like conformational antimicrobial peptides” (Communications Biology, 2023)
Residues, ends and D or L forms follow the SMILES beside them.

What was measured:
[1] = system: K. pneumoniae ATCC 700603; assay: microbe, parasite or virus in culture; format: cell-based, Klebsiella pneumoniae
Method: (§1) MRSA USA 300 and K. pneumoniae ATCC 700603 were employed to assess the development of resistance. From inoculated microtiter panels, an aliquot of the well with the highest concentration permitting growth was taken and back diluted in fresh media to a turbidity of a 0.5 McFarland standard. This suspension was then further diluted and used to inoculate a fresh MIC panel resulting in a final concentration of 5 × 10^6 CFU/mL. Panels were incubated according to CLSI guidelines (M07, 11th edition, 2018), MICs were recorded and the next inoculum was prepared from the well containing the highest concentration of drug that allowed growth in identical fashion as described above.

[2] = system: MRSA USA 300; assay: microbe, parasite or virus in culture; format: cell-based, Staphylococcus aureus
Method: as §1

CC[C@H](C)[C@H](NC(=O)[C@H](CCCNC(=N)N)NC(=O)[C@H](CCCNC(=N)N)NC(=O)[C@H](CC(C)C)NC(=O)[C@H](Cc1ccccc1)NC(=O)[C@@H](N)CCCNC(=N)N)C(=O)N[C@@H](Cc1ccccc1)C(=O)N[C@@H](Cc1ccccc1)C(=O)N[C@@H](Cc1ccccc1)C(=O)N[C@@H](Cc1ccccc1)C(N)=O [HT2] (H-RFLRRIFFFF-NH2)
Concentration (MIC in drug resistance assay) ([1]; K. pneumoniae ATCC 700603, day 0): 6.25 µg/mL | Concentration (MIC in drug resistance assay) ([1]; K. pneumoniae ATCC 700603, day 1): 6.25 µg/mL | Concentration (MIC in drug resistance assay) ([1]; K. pneumoniae ATCC 700603, day 2): 6.25 µg/mL | Concentration (MIC in drug resistance assay) ([1]; K. pneumoniae ATCC 700603, day 3): 12.5 µg/mL | Concentration (MIC in drug resistance assay) ([1]; K. pneumoniae ATCC 700603, day 4): 12.5 µg/mL | Concentration (MIC in drug resistance assay) ([1]; K. pneumoniae ATCC 700603, day 5): 6.25 µg/mL | Concentration (MIC in drug resistance assay) ([1]; K. pneumoniae ATCC 700603, day 6): 6.25 µg/mL | Concentration (MIC in drug resistance assay) ([1]; K. pneumoniae ATCC 700603, day 7): 6.25 µg/mL | Concentration (MIC in drug resistance assay) ([1]; K. pneumoniae ATCC 700603, day 8): 6.25 µg/mL | Concentration (MIC in drug resistance assay) ([1]; K. pneumoniae ATCC 700603, day 9): 6.25 µg/mL | Concentration (MIC in drug resistance assay) ([1]; K. pneumoniae ATCC 700603, day 10): 12.5 µg/mL | Concentration (MIC in drug resistance assay) ([1]; K. pneumoniae ATCC 700603, day 11): 12.5 µg/mL | Concentration (MIC in drug resistance assay) ([1]; K. pneumoniae ATCC 700603, day 12): 12.5 µg/mL | Concentration (MIC in drug resistance assay) ([1]; K. pneumoniae ATCC 700603, day 13): 12.5 µg/mL | Concentration (MIC in drug resistance assay) ([1]; K. pneumoniae ATCC 700603, day 14): 25 µg/mL | Concentration (MIC in drug resistance assay) ([1]; K. pneumoniae ATCC 700603, day 15): 25 µg/mL | Concentration (MIC in drug resistance assay) ([1]; K. pneumoniae ATCC 700603, day 16): 25 µg/mL | Concentration (MIC in drug resistance assay) ([1]; K. pneumoniae ATCC 700603, day 17): 25 µg/mL | Concentration (MIC in drug resistance assay) ([1]; K. pneumoniae ATCC 700603, day 18): 12.5 µg/mL | Concentration (MIC in drug resistance assay) ([1]; K. pneumoniae ATCC 700603, day 19): 25 µg/mL | Concentration (MIC in drug resistance assay) ([1]; K. pneumoniae ATCC 700603, day 20): 25 µg/mL | Concentration (MIC in drug resistance assay) ([1]; K. pneumoniae ATCC 700603, day 21): 25 µg/mL | Concentration (MIC in drug resistance assay) ([1]; K. pneumoniae ATCC 700603, day 22): 12.5 µg/mL | Concentration (MIC in drug resistance assay) ([1]; K. pneumoniae ATCC 700603, day 23): 25 µg/mL | Concentration (MIC in drug resistance assay) ([1]; K. pneumoniae ATCC 700603, day 24): 50 µg/mL | Concentration (MIC in drug resistance assay) ([1]; K. pneumoniae ATCC 700603, day 25): 25 µg/mL | Concentration (MIC in drug resistance assay) ([1]; K. pneumoniae ATCC 700603, day 26): 25 µg/mL | Concentration (MIC in drug resistance assay) ([1]; K. pneumoniae ATCC 700603, day 27): 25 µg/mL | Concentration (MIC in drug resistance assay) ([1]; K. pneumoniae ATCC 700603, day 28): 25 µg/mL | Concentration (MIC in drug resistance assay) ([1]; K. pneumoniae ATCC 700603, day 29): 25 µg/mL | Concentration (MIC in drug resistance assay) ([1]; K. pneumoniae ATCC 700603, day 30): 50 µg/mL | Concentration (MIC in drug resistance assay) ([1]; K. pneumoniae ATCC 700603, day 31): 25 µg/mL | Concentration (MIC in drug resistance assay) ([1]; K. pneumoniae ATCC 700603, day 32): 25 µg/mL | Concentration (MIC in drug resistance assay) ([1]; K. pneumoniae ATCC 700603, day 33): 25 µg/mL | Concentration (MIC in drug resistance assay) ([1]; K. pneumoniae ATCC 700603, day 34): 12.5 µg/mL | Concentration (MIC in drug resistance assay) ([1]; K. pneumoniae ATCC 700603, day 35): 25 µg/mL | Concentration (MIC in drug resistance assay) ([1]; K. pneumoniae ATCC 700603, day 36): 25 µg/mL | Concentration (MIC in drug resistance assay) ([1]; K. pneumoniae ATCC 700603, day 37): 50 µg/mL | Concentration (MIC in drug resistance assay) ([1]; K. pneumoniae ATCC 700603, day 38): 25 µg/mL | Concentration (MIC in drug resistance assay) ([1]; K. pneumoniae ATCC 700603, day 39): 25 µg/mL | Concentration (MIC in drug resistance assay) ([1]; K. pneumoniae ATCC 700603, day 40): 25 µg/mL | increase in MIC after 40 passages ([1]; serial passage at sub-MIC): four-fold | Concentration (MIC in drug resistance assay) ([2]; MRSA USA 300, day 0): 3.125 µg/mL | Concentration (MIC in drug resistance assay) ([2]; MRSA USA 300, day 1): 3.125 µg/mL
